Measurements published in US10072026B2, “Crystalline form of 3-((1R,3s,5S)-3-((7-((5-methyl-1H-pyrazol-3-yl)amino)-1,6-naphthyridin-5-yl)amino)-8-azabicyclo[3.2.1]octan-8-yl)propanenitrile” (priority 2015, dated 2018).
Like-named read-outs stand apart in the source and are kept apart here.

Assays:
[1] = system: IL-4 induced STAT6 phosphorylation in THP-1 human monocytic cells; experiment: Cellular JAK potency assay, THP-1
JAK1 = JAK1 (Homo sapiens (Human), UniProt P23458); experiment: LanthaScreen JAK biochemical assay (JAK1)
JAK1, sequence (P23458 whole entry): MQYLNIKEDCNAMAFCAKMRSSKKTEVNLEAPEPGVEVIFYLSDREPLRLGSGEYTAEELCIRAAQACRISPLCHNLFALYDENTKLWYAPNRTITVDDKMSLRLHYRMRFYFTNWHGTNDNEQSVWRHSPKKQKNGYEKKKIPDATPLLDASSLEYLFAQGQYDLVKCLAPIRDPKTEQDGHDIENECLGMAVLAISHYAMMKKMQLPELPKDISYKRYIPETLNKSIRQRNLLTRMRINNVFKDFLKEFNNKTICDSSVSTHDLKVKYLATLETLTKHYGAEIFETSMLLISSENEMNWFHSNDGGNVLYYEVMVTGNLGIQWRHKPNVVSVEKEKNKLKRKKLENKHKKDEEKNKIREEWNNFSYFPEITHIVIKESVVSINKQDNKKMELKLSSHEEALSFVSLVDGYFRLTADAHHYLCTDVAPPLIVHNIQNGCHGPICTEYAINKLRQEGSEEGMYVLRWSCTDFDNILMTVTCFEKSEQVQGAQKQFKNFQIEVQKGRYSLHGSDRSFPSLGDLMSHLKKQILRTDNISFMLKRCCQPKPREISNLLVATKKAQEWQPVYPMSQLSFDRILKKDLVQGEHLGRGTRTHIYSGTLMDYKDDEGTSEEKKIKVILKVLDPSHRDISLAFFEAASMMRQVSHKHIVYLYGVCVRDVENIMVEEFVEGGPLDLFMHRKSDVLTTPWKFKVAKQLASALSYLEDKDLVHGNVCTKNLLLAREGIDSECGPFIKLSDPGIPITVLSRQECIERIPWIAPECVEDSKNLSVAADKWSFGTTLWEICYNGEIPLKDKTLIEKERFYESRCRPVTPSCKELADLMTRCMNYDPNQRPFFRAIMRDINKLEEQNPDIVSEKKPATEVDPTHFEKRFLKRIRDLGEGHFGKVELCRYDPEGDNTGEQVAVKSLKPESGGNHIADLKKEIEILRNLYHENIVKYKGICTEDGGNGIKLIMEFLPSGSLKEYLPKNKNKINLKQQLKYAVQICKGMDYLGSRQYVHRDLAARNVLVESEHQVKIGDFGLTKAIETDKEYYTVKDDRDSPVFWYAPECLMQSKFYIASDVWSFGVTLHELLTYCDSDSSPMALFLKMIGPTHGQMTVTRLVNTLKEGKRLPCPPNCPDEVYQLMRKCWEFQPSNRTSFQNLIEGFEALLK

[2] = IL-4 induced STAT6 phosphorylation, THP-1 cells
[3] = read-out: JAK 1 (pKi) (converted)
[4] = Homo sapiens, THP-1, read-out: THP-1 IL4 pIC50 (converted)
[5] = THP-1 cells, IL-4 induced STAT6 phosphorylation

COC(=O)CN1[C@@H]2CC[C@H]1C[C@H](Nc1nc(Nc3cc(C)[nH]n3)cc3ncccc13)C2 [Example 1-1]
THP-1 IL4 pIC50 [1, 2]: C (C represents a pEC50 value<6.7 (EC50>200 nM))

COC(=O)CCN1[C@@H]2CC[C@H]1C[C@H](Nc1nc(Nc3cc(C)[nH]n3)cc3ncccc13)C2 [Example 1-2]
THP-1 IL4 pIC50 [1, 2]: C (C represents a pEC50 value<6.7 (EC50>200 nM))

COC(=O)CCCN1[C@@H]2CC[C@H]1C[C@H](Nc1nc(Nc3cc(C)[nH]n3)cc3ncccc13)C2 [Example 1-3]
THP-1 IL4 pIC50 [1, 2]: C (C represents a pEC50 value<6.7 (EC50>200 nM))

Cc1cc(Nc2cc3ncccc3c(N[C@@H]3C[C@H]4CC[C@@H](C3)N4CCCF)n2)n[nH]1 [Example 1-9]
JAK 1 (pKi) (JAK1): B (B represents a pKi value between 9 and 10 (Ki between 1 nM and 0.1 nM)) | THP-1 IL4 pIC50 [1, 2]: C (C represents a pEC50 value<6.7 (EC50>200 nM))

Cc1cc(Nc2cc3ncccc3c(N[C@@H]3C[C@H]4CC[C@@H](C3)N4CC(=O)N[C@@H]3CCOC3=O)n2)n[nH]1 [Example 1-11]
THP-1 IL4 pIC50 [1, 2]: C (C represents a pEC50 value<6.7 (EC50>200 nM))

Cc1cc(Nc2cc3ncccc3c(N[C@@H]3C[C@H]4CC[C@@H](C3)N4CC(=O)N[C@H]3CCOC3=O)n2)n[nH]1 [Example 1-12]
THP-1 IL4 pIC50 [1, 2]: C (C represents a pEC50 value<6.7 (EC50>200 nM))

Cc1cc(Nc2cc3ncccc3c(N[C@@H]3C[C@H]4CC[C@@H](C3)N4CC(C)C)n2)n[nH]1 [Example 1-13]
JAK 1 (pKi) (JAK1): B (B represents a pKi value between 9 and 10 (Ki between 1 nM and 0.1 nM)) | THP-1 IL4 pIC50 [1, 2]: A (A represents a pEC50 value≥7.5 (EC50≤32 nM))

Cc1cc(Nc2cc3ncccc3c(N[C@@H]3C[C@H]4CC[C@@H](C3)N4Cc3ccc(O)cc3)n2)n[nH]1 [Example 1-18]
Ki (JAK1; [3]): 0.0001 to 0.001 µM | IC50 [1, 4]: > 0.2 µM

Cc1cc(Nc2cc3ncccc3c(N[C@@H]3C[C@H]4CC[C@@H](C3)N4Cc3cccc(O)c3)n2)n[nH]1 [Example 1-19]
IC50 [1, 4]: 0.0316 to 0.2 µM

Cc1cc(Nc2cc3ncccc3c(N[C@@H]3C[C@H]4CC[C@@H](C3)N4CC3CCC(=O)O3)n2)n[nH]1 (some centres unmarked) [Example 1-29]
THP-1 IL4 pIC50 [1, 2]: C (C represents a pEC50 value<6.7 (EC50>200 nM))

Cc1cc(Nc2cc3ncccc3c(N[C@@H]3C[C@H]4CC[C@@H](C3)N4CC3COC(=O)O3)n2)n[nH]1 (some centres unmarked) [Example 1-30]
IC50 [1, 4]: 0.0316 to 0.2 µM

COC(=O)CCCN1[C@@H]2CCC[C@H]1C[C@H](Nc1nc(Nc3cc(C)[nH]n3)cc3ncccc13)C2 [Example 1-34]
JAK 1 (pKi) (JAK1): B (B represents a pKi value between 9 and 10 (Ki between 1 nM and 0.1 nM)) | THP-1 IL4 pIC50 [1, 2]: C (C represents a pEC50 value<6.7 (EC50>200 nM))

Cc1cc(Nc2cc3ncccc3c(N[C@@H]3C[C@H]4CCC[C@@H](C3)N4CC(=O)OC(C)C)n2)n[nH]1 [Example 1-35]
THP-1 IL4 pIC50 [1, 2]: A (A represents a pEC50 value≥7.5 (EC50≤32 nM))

Cc1cc(Nc2cc3ncccc3c(N[C@@H]3C[C@H]4CCC[C@@H](C3)N4CC(F)(F)F)n2)n[nH]1 [Example 1-45]
THP-1 IL4 pIC50 [1, 2]: B (B represents a pEC50 value between 6.7 and 7.5 (EC50 between 200 nM and 32 nM))

COCCCN1[C@@H]2CCC[C@H]1C[C@H](Nc1nc(Nc3cc(C)[nH]n3)cc3ncccc13)C2 [Example 1-46]
JAK 1 (pKi) (JAK1): B (B represents a pKi value between 9 and 10 (Ki between 1 nM and 0.1 nM)) | THP-1 IL4 pIC50 [1, 2]: B (B represents a pEC50 value between 6.7 and 7.5 (EC50 between 200 nM and 32 nM))

Cc1cc(Nc2cc3ncccc3c(N[C@@H]3C[C@H]4CCC[C@@H](C3)N4Cc3cccc(O)c3)n2)n[nH]1 [Example 1-49]
THP-1 IL4 pIC50 [1, 2]: A (A represents a pEC50 value≥7.5 (EC50≤32 nM))

Cc1cc(Nc2cc3ncccc3c(N[C@@H]3C[C@H]4CCC[C@@H](C3)N4[C@H]3CCOC3=O)n2)n[nH]1 [Example 1-51]
THP-1 IL4 pIC50 [1, 2]: B (B represents a pEC50 value between 6.7 and 7.5 (EC50 between 200 nM and 32 nM))

Cc1cc(Nc2cc3ncccc3c(N[C@@H]3C[C@H]4CCC[C@@H](C3)N4[C@@H]3CCOC3=O)n2)n[nH]1 [Example 1-52]
THP-1 IL4 pIC50 [1, 2]: B (B represents a pEC50 value between 6.7 and 7.5 (EC50 between 200 nM and 32 nM))

CCOCC(=O)N1[C@@H]2CC[C@H]1C[C@H](Nc1nc(Nc3cc(C)[nH]n3)cc3ncccc13)C2 [Example 2-4]
THP-1 IL4 pIC50 [1, 2]: C (C represents a pEC50 value<6.7 (EC50>200 nM))

COC(=O)C1(C(=O)N2[C@@H]3CC[C@H]2C[C@H](Nc2nc(Nc4cc(C)[nH]n4)cc4ncccc24)C3)CC1 [Example 2-9]
IC50 [1, 4]: > 0.2 µM

Cc1cc(Nc2cc3ncccc3c(N[C@@H]3C[C@H]4CC[C@@H](C3)N4C(=O)OCC(C)C)n2)n[nH]1 [Example 3-3]
JAK 1 (pKi) (JAK1): B (B represents a pKi value between 9 and 10 (Ki between 1 nM and 0.1 nM)) | THP-1 IL4 pIC50 [1, 2]: A (A represents a pEC50 value≥7.5 (EC50≤32 nM))

COCCOC(=O)N1[C@@H]2CC[C@H]1C[C@H](Nc1nc(Nc3cc(C)[nH]n3)cc3ncccc13)C2 [Example 3-5]
JAK 1 (pKi) (JAK1): B (B represents a pKi value between 9 and 10 (Ki between 1 nM and 0.1 nM)) | THP-1 IL4 pIC50 [1, 2]: B (B represents a pEC50 value between 6.7 and 7.5 (EC50 between 200 nM and 32 nM))

Cc1cc(Nc2cc3ncccc3c(N[C@@H]3C[C@H]4CC[C@@H](C3)N4S(=O)(=O)C3(C)CC3)n2)n[nH]1 [Example 4-8]
Ki (JAK1; [3]): […] | IC50 [1, 4]: < 0.0316 µM

Cc1cc(Nc2cc3ncccc3c(N[C@@H]3C[C@H]4CC[C@@H](C3)N4S(=O)(=O)C3CN(CCC#N)C3)n2)n[nH]1 [Example 4-11]
Ki (JAK1; [3]): 0.0001 to 0.001 µM | IC50 [1, 4]: > 0.2 µM

COCC1CCCN1S(=O)(=O)N1[C@@H]2CC[C@H]1C[C@H](Nc1nc(Nc3cc(C)[nH]n3)cc3ncccc13)C2 (some centres unmarked) [Example 4-12]
Ki (JAK1): 0.0001 to 0.001 µM | IC50 [1, 4]: 0.0316 to 0.2 µM

Cc1cc(Nc2cc3ncccc3c(N[C@@H]3C[C@H]4CC[C@@H](C3)N4S(=O)(=O)c3ccccn3)n2)n[nH]1 [Example 4-14]
IC50 [1, 4]: 0.0316 to 0.2 µM

Cc1cc(Nc2cc3ncccc3c(N[C@@H]3C[C@H]4CCC[C@@H](C3)N4S(C)(=O)=O)n2)n[nH]1 [Example 4-16]
THP-1 IL4 pIC50 [1, 2]: A (A represents a pEC50 value≥7.5 (EC50≤32 nM))

C=CCS(=O)(=O)N1[C@@H]2CCC[C@H]1C[C@H](Nc1nc(Nc3cc(C)[nH]n3)cc3ncccc13)C2 [Example 4-22]
THP-1 IL4 pIC50 [1, 2]: A (A represents a pEC50 value≥7.5 (EC50≤32 nM))

COc1ccc2c(N[C@@H]3C[C@H]4CC[C@@H](C3)N4CCCF)nc(Nc3cc(C)[nH]n3)cc2n1 [Example 5-5]
JAK 1 (pKi) (JAK1): B (B represents a pKi value between 9 and 10 (Ki between 1 nM and 0.1 nM)) | THP-1 IL4 pIC50 [1, 2]: B (B represents a pEC50 value between 6.7 and 7.5 (EC50 between 200 nM and 32 nM))

Cc1cc(Nc2cc3nc(CN4CCOCC4)ccc3c(N[C@@H]3C[C@H]4CC[C@@H](C3)N4S(C)(=O)=O)n2)n[nH]1 [Example 5-15]
IC50 [1, 4]: 0.0316 to 0.2 µM

Cc1cc(Nc2cc3nc(CN4CCOCC4)ccc3c(N[C@@H]3C[C@H]4CC[C@@H](C3)N4CC(C)C)n2)n[nH]1 [Example 5-19]
JAK 1 (pKi) (JAK1): B (B represents a pKi value between 9 and 10 (Ki between 1 nM and 0.1 nM)) | THP-1 IL4 pIC50 [1, 2]: B (B represents a pEC50 value between 6.7 and 7.5 (EC50 between 200 nM and 32 nM))

COCCS(=O)(=O)N1[C@@H]2CCC[C@H]1C[C@H](Nc1nc(Nc3cc(C)[nH]n3)cc3nc(CN4CCOCC4)ccc13)C2 [Example 5-24]
THP-1 IL4 pIC50 [1, 2]: B (B represents a pEC50 value between 6.7 and 7.5 (EC50 between 200 nM and 32 nM))

C=CCOC(=O)N1[C@@H]2CCC[C@H]1C[C@H](Nc1nc(Nc3cc(C)[nH]n3)cc3nc(CN4CCOCC4)ccc13)C2 [Example 5-25]
THP-1 IL4 pIC50 [1, 2]: B (B represents a pEC50 value between 6.7 and 7.5 (EC50 between 200 nM and 32 nM))

Cc1cc(Nc2cc3nc(CN4CCOCC4)ccc3c(N[C@@H]3C[C@H]4CCC[C@@H](C3)N4S(=O)(=O)N3CCC3)n2)n[nH]1 [Example 5-28]
THP-1 IL4 pIC50 [1, 2]: B (B represents a pEC50 value between 6.7 and 7.5 (EC50 between 200 nM and 32 nM))

CCC1(S(=O)(=O)N2[C@@H]3CC[C@H]2C[C@H](Nc2nc(Nc4cc(C)[nH]n4)cc4nc(CN5CCC(F)(F)CC5)ccc24)C3)CC1 [Example 5-32]
IC50 [1, 4]: 0.0316 to 0.2 µM

Cc1cc(Nc2cc3nc(CN4CCC(F)(F)CC4)ccc3c(N[C@@H]3C[C@H]4CC[C@@H](C3)N4CC(F)(F)F)n2)n[nH]1 [Example 5-33]
IC50 [1, 4]: 0.0316 to 0.2 µM

Cc1cc(Nc2cc3nc(CN4CCN(C)CC4)ccc3c(N[C@@H]3C[C@H]4CC[C@@H](C3)N4CC(F)(F)F)n2)n[nH]1 [Example 5-35]
IC50 [1, 4]: < 0.0316 µM

COc1cnc2cc(Nc3cc(C)[nH]n3)nc(N[C@@H]3C[C@H]4CCC[C@@H](C3)N4CCCF)c2c1 [Example 6-26]
JAK 1 (pKi) (JAK1): B (B represents a pKi value between 9 and 10 (Ki between 1 nM and 0.1 nM)) | THP-1 IL4 pIC50 [1, 5]: B (B represents a pEC50 value between 6.7 and 7.5 (EC50 between 200 nM and 32 nM))

COC(=O)c1cnc2cc(Nc3cc(C)[nH]n3)nc(N[C@@H]3C[C@H]4CC[C@@H](C3)N4C(=O)CN(C)C)c2c1 [Example 6-39]
JAK 1 (pKi) (JAK1): B (B represents a pKi value between 9 and 10 (Ki between 1 nM and 0.1 nM)) | THP-1 IL4 pIC50 [1, 5]: C (C represents a pEC50 value<6.7 (EC50>200 nM))

COC(=O)c1cnc2cc(Nc3cc(C)[nH]n3)nc(N[C@@H]3C[C@H]4CC[C@@H](C3)N4CCCF)c2c1 [Example 6-44]
THP-1 IL4 pIC50 [1, 5]: B (B represents a pEC50 value between 6.7 and 7.5 (EC50 between 200 nM and 32 nM))

Cc1cc(Nc2cc3ncc(S(C)(=O)=O)cc3c(N[C@@H]3C[C@H]4CC[C@@H](C3)N4CCCF)n2)n[nH]1 [Example 6-55]
THP-1 IL4 pIC50 [1, 5]: C (C represents a pEC50 value<6.7 (EC50>200 nM))

Cc1cc(Nc2cc3ncc(S(C)(=O)=O)cc3c(N[C@@H]3C[C@H]4CC[C@@H](C3)N4[C@@H]3CCOC3=O)n2)n[nH]1 [Example 6-57]
THP-1 IL4 pIC50 [1, 5]: C (C represents a pEC50 value<6.7 (EC50>200 nM))

Cc1cc(Nc2cc3ncc(S(C)(=O)=O)cc3c(N[C@@H]3C[C@H]4CC[C@@H](C3)N4[C@H]3CCOC3=O)n2)n[nH]1 [Example 6-58]
THP-1 IL4 pIC50 [1, 5]: C (C represents a pEC50 value<6.7 (EC50>200 nM))

COc1ccnc2cc(Nc3cc(C)[nH]n3)nc(N[C@@H]3C[C@H]4CC[C@@H](C3)N4C(=O)CN(C)C)c12 [Example 7-3]
THP-1 IL4 pIC50 [1, 5]: C (C represents a pEC50 value<6.7 (EC50>200 nM))

COc1ccnc2cc(Nc3cc(C)[nH]n3)nc(N[C@@H]3C[C@H]4CC[C@@H](C3)N4CCF)c12 [Example 7-7]
THP-1 IL4 pIC50 [1, 5]: B (B represents a pEC50 value between 6.7 and 7.5 (EC50 between 200 nM and 32 nM))
